Data reported in patent publication US7820624B2, “Peptide ligands” (ICH Productions Limited, priority 2003, dated 2010).
“Also recorded” adds a separate entry of the source.

Columns and labels:
[1] = test system: human monocyte-derived immature dendritic cells; assay: Whole cell flow cytometry (FACS) of phage clone binding; conditions: day 4 cells, several donors; versus phage clone with no insert
Description: 5×10^4 Dendritic cells and 2×10^11 of an individual purified phage clone were each blocked at 4° C. for 30 mins in 1 ml MBSA (2% Marvel, 5% BSA in PBS), with mixing on a turntable. The dendritic cells were spun down at 2000 rpm, a gentle centrifugation to pellet cells without lysing them, for 5 min at 4° C., and the pellet resuspended in the blocked phage solution. The mixture was held on ice for 30 min to allow the phage to bind, before spinning down the cells, removing the supernatant and washing the cells with 1 ml 1% BSA, 0.05% Tween20-PBS. The cells were spun again, the supernatant removed, and the cells fixed in 1 ml 1% paraformaldehyde for 30 min on ice. […] The cells were incubated with the antibody on ice for 30 min before spinning down, washing twice in 0.05% Tween20, 1% BSA PBS, resuspending in […] and measuring the percentage cells positive for FITC by FACS analysis.
Alternatively, 5×10^4 dendritic cells were mixed with 2×10^11 of individual phage clones as described for panning of the phage library. The mixture of phage and DC suspensions was kept on ice for 30 min before cells were centrifuged to remove the supernatant and washed with 1 ml 1% BSA, 0.05% Tween 20-PBS. The cells were again pelleted by centrifugation, then fixed for flow cytometry analysis by resuspending in 1 ml of 1% paraformaldehyde for 30 min on ice. […] The cells were incubated with the antibody on ice for 30 min then pelleted by centrifugation, washed twice in 0.05% Tween 20, 1% BSA PBS and resuspended in 200 μl PBS. The percentage of FITC-positive cells was determined by flow cytometry using a Epics XL flow cytometer (Beckman Coulter, High Wycombe, UK.).

[2] = test system: human peripheral blood monocytes; assay: LID transfection of monocytes, EGFP by FACS and cell death; assay type: cell-based
Description: (§1) Lipopolyplex (LID) transfection complexes comprising lipid (L), peptide (in the form of a peptide derivative as described above) (I) and DNA (D) were prepared. The lipid component was Lipofectin or Lipofectamine 2000 (Invitrogen Ltd, Paisley, UK), the peptide component was a synthesized peptide A to F, 6 or 6J derivative, as described in Table 7 above, and the DNA was the plasmid pEGFP-N1 (Clontech, BD Biosciences, Palo Alto, Calif.)
(§2) component (Lipofectin or Lipofectamine 2000) was maintained at a constant proportion, by weight, relative to DNA of 0.75:1. Prior to making transfection complexes, in method A the lipid component was diluted to a concentration of 15 μg per ml, the peptide was prepared at 0.1 mg/ml and the DNA (plasmid pEGFP-N1, BD Biosciences, Cowley, UK, prepared using EndoFree plasmid kit, Qiagen Ltd, Crawley, UK) was at 10 μg per ml. All dilutions were performed with OptiMEM reduced serum tissue culture medium (Life Technologies Ltd, Paisley, UK). In method B prior to making transfection complexes the lipid component was diluted to a concentration of 30 μg per ml, the peptide was prepared at 0.1 mg/ml and the DNA (plasmid pEGFP-N1, BD Biosciences, Cowley, UK, prepared using EndoFree plasmid kit, Qiagen Ltd, Crawley, UK) was at […]. All dilutions were performed in serum-free RPMI.
(§3) Transfection complexes were made by mixing the components in the order 1) lipid (50 μl) then 2) peptide (70 μl) and finally 3) DNA (50 μl), then diluting with OptiMEM or serum free RPMI, as appropriate, to a concentration relative to the DNA component of 2 μg DNA per […] (OptiMEM) or 500 μl (RPMI).
(§4) For transfection of monocytes, peripheral blood monocytes were prepared using Lymphoprep centrifugation and CD14 bead selection as described in the method for preparation of monocyte derived dendritic cells in Example 1(v) above. These cells were then transfected as described as described for dendritic cells except that transfection of the monocytes (and also of day 3 or day 4 immature dendritic cells) was carried out in solution.

[3] = Titration of phage clone binding to blocked plastic (control)
Description: (§5) The dendritic cells were spun down at 2000 rpm, for 5 min at 4° C., and resuspended in the phage solution, allowing the phage to bind for 1 hour on ice with occasional mixing. The cells were then washed in PBS-Tween 20 (0.05%) three times before eluting phage with 166 μl TBS pH5.5. for 10 min on ice. The eluate was neutralised with […] Tris-HCl pH 8, the cells were spun down, and the supernatant removed to be stored as eluate. The cell pellet was resuspended in 200 μl of cell lysis buffer (30 mM Tris-HCl, 1 mM EDTA pH 8.0) for 1 hour on ice, with shaking. The cell debris was removed by spinning at 5000 rpm for 5 min and the supernatant recovered. The phage in the eluate and the cell lysate were titred by measuring plaque forming units (pfu) in E. coli ER2738 as described in the NEB C7C technical bulletin.
(§6) The titration of phage clone binding was carried out using human and mouse dendritic cells, with binding to plastic as a control. The human cells were obtained from donors as stated below.

[4] = test system: human monocyte-derived immature dendritic cells; assay: Titration of phage clone binding to human dendritic cells; conditions: for Phage harvested by cell lysis (pfu), human donor S / Phage harvested by cell lysis (pfu), human donor one / Phage harvested by cell lysis (pfu), human donor two: 2×10^11 phage on 5×10^4 cells, 1 hour on ice; for Extent of phage clone binding in titrations: all titrations, including mouse dendritic cells, versus phage with no insert
Description: Phage were recovered and titred from each round of selection as follows. 2×10^11 Blocked phage were added to 5×10^4 blocked monocyte-derived immature dendritic cells for 1 hour on ice before washing cells three times with 0.05% Tween20-PBS, eluting phage with TBS pH5.5, and lysing cells to harvest the phage remaining bound. The numbers of phage harvested by cell lysis were calculated as plaque forming units (pfu). […] Sequencing of the bound phage shown in FIG. 1 identified the peptides as APSNSTA [SEQ. ID. NO.:15], QLLTGAS [SEQ. ID. NO.:30], TARDYRL [SEQ. ID. NO.:31], FQSQYQK [SEQ. ID. NO.:26], PLMPSLS [SEQ. ID. NO.:24], FPRAPHH [SEQ. ID. NO.:32], MASISMK [SEQ. ID. NO.:27], DWWHTSA [SEQ. ID. NO.:28], SHVKLNS [SEQ. ID. NO.:29], and SPALKTV [SEQ. ID. NO.:16].
as §5, §6

mouse dendritic cells = assay: Titration of phage clone binding to mouse dendritic cells; conditions: 2×10^11 phage
Description: as §5, §6

[5] = test system: human monocyte-derived immature dendritic cells; assay: LID (lipid-peptide-DNA) transfection of immature dendritic cells, EGFP by FACS and 7AAD cell death; assay type: cell-based; parameters: Transfection efficiency, % EGFP positive cells: concentration or dose not given beside the values; conditions: for Percentage of dendritic cells transfected / Transfection efficiency, % positive cells: day 4 cells; for Percentage of dendritic cells transfected: LID with lipofectin (FIG. 4b)
Description: as §1
In the transfection complex, peptide component to DNA charge ratios (+/−) were used at 1.5:1, 3:1 and 7:1. The lipid
as §2, §3
Immature day 6 dendritic cells, obtained as described in Example 1(v) above, were plated into a 48 well plate at 5×10^4 cells per well in complete media and allowed to settle for 3 hours at 37° C. 300 μl or 500 μl (as appropriate) of the transfection complex obtained as described above was added to each well. The transfection complex was applied to cells within 5 minutes of preparation. Transfection incubations were performed at 37° C. for 4 hours, after which the medium was replaced with complete medium with cytokines for 24 hours. Cells were harvested by scraping, spun down and resuspended in 300 μl PBS for FACS analysis to determine the percentage of cells positive for the reporter gene EGFP (Enhanced Green Fluorescent Protein). Each transfection was performed in triplicate wells.
as §4

[6] = lipofectin, lipid:DNA 0.75:1, peptide:DNA 7:1 (FIG. 5a)

DWWHTSA (Synthetic peptide binding to dendritic cells)
Percentage of cells positive for bound phage (FITC) by FACS [1]: binding to a higher percentage of cells than a phage clone bearing no insert; also recorded: bind to dendritic cells in highest amounts; also recorded: binding to dendritic cells in highest amounts
Cell death ([2]; FIG. 7b, peptide F value with Lipofectin): 25%
Phage titre (pfu), plastic [3]: 1180 pfu ×10^3
Phage harvested by cell lysis (pfu), human donor S [4]: 8020 pfu ×10^3
Phage harvested by cell lysis (pfu), human donor one [4]: 2980 pfu ×10^3
Phage harvested by cell lysis (pfu), human donor two [4]: 1380 pfu ×10^3
Phage titre (pfu), mouse DCs (mouse dendritic cells): 3240 pfu ×10^3
Percentage of dendritic cells transfected [5]: less than 1%

FPRAPHH (Synthetic peptide binding to dendritic cells)
Percentage of cells positive for bound phage (FITC) by FACS [1]: a higher percentage of cells positive for bound phage than the controls with no insert
Percentages of cells transfected (ranking) ([2]; FIG. 7a): highest percentages of cells transfected
Phage titre (pfu), plastic [3]: 1860 pfu ×10^3
Phage harvested by cell lysis (pfu), human donor S [4]: 19400 pfu ×10^3
Phage harvested by cell lysis (pfu), human donor one [4]: 15920 pfu ×10^3
Phage harvested by cell lysis (pfu), human donor two [4]: 3200 pfu ×10^3
Extent of phage clone binding in titrations [4]: bound in highest numbers in all titrations
Phage titre (pfu), mouse DCs (mouse dendritic cells): 13980 pfu ×10^3
Transfection efficiency, % positive cells [5, 6]: 11%

FQSQYQK (Synthetic peptide binding to dendritic cells)
Percentage of cells positive for bound phage (FITC) by FACS [1]: binding to a higher percentage of cells than a phage clone bearing no insert
Phage titre (pfu), plastic [3]: 1680 pfu ×10^3
Phage harvested by cell lysis (pfu), human donor S [4]: 3060 pfu ×10^3
Phage harvested by cell lysis (pfu), human donor one [4]: 1000 pfu ×10^3
Phage harvested by cell lysis (pfu), human donor two [4]: 360 pfu ×10^3
Phage titre (pfu), mouse DCs (mouse dendritic cells): 3260 pfu ×10^3

MASISMK (Synthetic peptide binding to dendritic cells)
Percentage of cells positive for bound phage (FITC) by FACS [1]: a higher percentage of cells positive for bound phage than the controls with no insert
Phage titre (pfu), plastic [3]: 2380 pfu ×10^3
Phage harvested by cell lysis (pfu), human donor S [4]: 9440 pfu ×10^3
Phage harvested by cell lysis (pfu), human donor one [4]: 15220 pfu ×10^3
Phage harvested by cell lysis (pfu), human donor two [4]: 7780 pfu ×10^3
Extent of phage clone binding in titrations [4]: bound in highest numbers in all titrations
Phage titre (pfu), mouse DCs (mouse dendritic cells): 6380 pfu ×10^3
Percentage of dendritic cells transfected [5]: approximately half that value
Transfection efficiency, % positive cells [5, 6]: about 7%

PMLPSLS (Synthetic peptide binding to dendritic cells)
Percentage of cells positive for bound phage (FITC) by FACS [1]: a higher percentage of cells positive for bound phage than the controls with no insert
Phage titre (pfu), plastic [3]: 80 pfu ×10^3
Phage harvested by cell lysis (pfu), human donor S [4]: 560 pfu ×10^3
Phage harvested by cell lysis (pfu), human donor one [4]: 40 pfu ×10^3
Phage harvested by cell lysis (pfu), human donor two [4]: 40 pfu ×10^3
Phage titre (pfu), mouse DCs (mouse dendritic cells): 1520 pfu ×10^3

QLLTGAS (Synthetic peptide binding to dendritic cells)
Percentage of cells positive for bound phage (FITC) by FACS [1]: a higher percentage of cells positive for bound phage than the controls with no insert; also recorded: binds to marginally more cells than the others
Phage titre (pfu), plastic [3]: 220 pfu ×10^3
Phage harvested by cell lysis (pfu), human donor S [4]: 220 pfu ×10^3
Phage harvested by cell lysis (pfu), human donor one [4]: 380 pfu ×10^3
Phage harvested by cell lysis (pfu), human donor two [4]: 960 pfu ×10^3
Phage titre (pfu), mouse DCs (mouse dendritic cells): 20 pfu ×10^3

RRETAWA [peptide 6, reference compound]
Transfection efficiency, % EGFP positive cells ([5]; day 3 dendritic cells (FIG. 6a)): 14%
Transfection efficiency, % positive cells ([5]; Lipofectamine 2000): 3%
Transfection efficiency, % positive cells [5, 6]: 2%

SPALKTV (Synthetic peptide binding to dendritic cells)
Percentage of cells positive for bound phage (FITC) by FACS [1]: all clones except for one
Phage titre (pfu), plastic [3]: 220 pfu ×10^3
Phage harvested by cell lysis (pfu), human donor S [4]: 6960 pfu ×10^3
Phage harvested by cell lysis (pfu), human donor one [4]: 120 pfu ×10^3
Phage titre (pfu), mouse DCs (mouse dendritic cells): 600 pfu ×10^3

SQKNPQM (Synthetic peptide binding to dendritic cells)
Percentage of cells positive for bound phage (FITC) by FACS [1]: binding to a higher percentage of cells than a phage clone bearing no insert

STPPNTT (Synthetic peptide binding to dendritic cells)
Percentage of cells positive for bound phage (FITC) by FACS [1]: a higher percentage of cells positive for bound phage than the controls with no insert

TARDYRL (Synthetic peptide binding to dendritic cells)
Percentage of cells positive for bound phage (FITC) by FACS [1]: a higher percentage of cells positive for bound phage than the controls with no insert
Phage harvested by cell lysis (pfu), human donor S [4]: 940 pfu ×10^3
Phage harvested by cell lysis (pfu), human donor two [4]: 180 pfu ×10^3
